# Source: patent US20150105252A1, “SUBSTITUTED PYRAZOLES AS HERBICIDES” (E I DU PONT DE NEMOURS AND COMPANY, priority 2013, published 2015)
# Tests used:
# velvetleaf = test: Test C preemergence; format: in vivo, Abutilon theophrasti; details: preemergence; for Plant response rating, Velvetleaf: 125 g ai/ha, scale 0 to 100, 0 = no effect, 100 = complete control
# Method in brief: (§1)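 Greenhouse pot test: preemergence application onto freshly seeded loam/sand mix, postemergence application onto seedlings (1–4 leaves, 2–18 cm) in peat-vermiculite substrate. Responses scored visually 13 to 15 days later relative to controls, where 0 means no effect and 100 means complete control; a dash indicates no result.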
# foxtail, giant = test: Test A preemergence; format: in vivo, Setaria faberii; details: preemergence; for Foxtail, Giant plant response rating (0 to 100 scale): 125 g ai/ha, visual injury approx. 10 days after treatment; for Foxtail, Giant plant response rating: 500 g ai/ha, visual injury after approx. 10 days, 0 to 100 scale (0 no effect, 100 complete control)
# Method in brief: (§2)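 Seeds were sown in a loam soil–sand blend and given a directed soil spray preemergence; postemergence plants at 2–10 cm, one- to two-leaf stage, were sprayed with compound in non-phytotoxic solvent with surfactant. After about 10 days in a greenhouse, injury was visually rated against untreated controls (0 = no effect, 100 = complete control).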
# pigweed [1] = test: Test C preemergence; format: in vivo, Amaranthus retroflexus; details: preemergence; for Plant response rating, Pigweed: 125 g ai/ha, scale 0 to 100, 0 = no effect, 100 = complete control
# Method in brief: as §1
# johnsongrass = test: Test C preemergence; format: in vivo, Sorghum halepense; details: preemergence; for Plant response rating, Johnsongrass: 125 g ai/ha, scale 0 to 100, 0 = no effect, 100 = complete control
# Method in brief: as §1
# pigweed [2] = test: Test A preemergence; format: in vivo, Amaranthus retroflexus; details: preemergence; for Pigweed plant response rating (0 to 100 scale): 125 g ai/ha, visual injury approx. 10 days after treatment; for Pigweed plant response rating: 500 g ai/ha, visual injury after approx. 10 days, 0 to 100 scale (0 no effect, 100 complete control)
# Method in brief: as §2
# corn [3] = test: Test C preemergence; format: in vivo, Zea mays; details: preemergence; for Plant response rating, Corn: 125 g ai/ha, scale 0 to 100, 0 = no effect, 100 = complete control
# Method in brief: as §1
# wheat [4] = test: Test A postemergence; format: in vivo, Triticum aestivum
# Method in brief: as §2
# crabgrass, large = test: Test C preemergence; format: in vivo, Digitaria sanguinalis; details: preemergence; for Plant response rating, Crabgrass, Large: 125 g ai/ha, scale 0 to 100, 0 = no effect, 100 = complete control
# Method in brief: as §1
# waterhemp = test: Test C preemergence; format: in vivo, Amaranthus rudis; details: preemergence; for Plant response rating, Waterhemp: 125 g ai/ha, scale 0 to 100, 0 = no effect, 100 = complete control
# Method in brief: as §1
# morningglory = test: Test C preemergence; format: in vivo, Ipomoea coccinea; details: preemergence; for Plant response rating, Morningglory: 125 g ai/ha, scale 0 to 100, 0 = no effect, 100 = complete control
# Method in brief: as §1
# wheat [5] = test: Test C preemergence; format: in vivo, Triticum aestivum; details: preemergence; for Plant response rating, Wheat: 125 g ai/ha, scale 0 to 100, 0 = no effect, 100 = complete control
# Method in brief: as §1
# barnyardgrass = test: Test C preemergence; format: in vivo, Echinochloa crus-galli; details: preemergence; for Plant response rating, Barnyardgrass: 125 g ai/ha, scale 0 to 100, 0 = no effect, 100 = complete control
# Method in brief: as §1
# corn [6] = test: Test A preemergence; format: in vivo, Zea mays; details: preemergence; for Corn plant response rating (0 to 100 scale): 125 g ai/ha, visual injury approx. 10 days after treatment; for Corn plant response rating: 500 g ai/ha, visual injury after approx. 10 days, 0 to 100 scale (0 no effect, 100 complete control)
# Method in brief: as §2
# [7] = 31 g ai/ha, visual rating, scale 0 to 100 (0 no effect, 100 complete control), 13 to 15 days
# [8] = 62 g ai/ha, scale 0 to 100 (0 no effect, 100 complete control), 13 to 15 days
# [9] = 250 g ai/ha, scale 0 to 100, 0 is no effect, 100 is complete control
# [10] = Postemergence, 500 g ai/ha, 0 to 100 scale (0 no effect, 100 complete control)
# [11] = postemergence, 125 g ai/ha, about 10 days, visual rating on 0 to 100 scale (0 no effect, 100 complete control)
smiles,measurement,setting,value
CCCNC(=O)c1cc(CCCl)n(Cc2ccnc(C(F)(F)F)c2)n1 [Compound 145],Velvetleaf plant response rating,velvetleaf; [7],90
same,Velvetleaf plant response rating,velvetleaf; [8],100
same,"Plant response rating, Velvetleaf",velvetleaf; 13 to 15 days,100
same,Velvetleaf plant response rating,velvetleaf; [9],100
same,"Foxtail, Giant plant response rating (0 to 100 scale)","foxtail, giant",100
same,"Foxtail, Giant plant response rating","foxtail, giant",100
same,Pigweed plant response rating,pigweed [1]; [7],100
same,Pigweed plant response rating,pigweed [1]; [8],100
same,"Plant response rating, Pigweed",pigweed [1]; 13 to 15 days,100
same,Pigweed plant response rating,pigweed [1]; [9],100
same,Johnsongrass plant response rating,johnsongrass; [7],55
same,"Plant response rating, Johnsongrass",johnsongrass; 13 to 15 days,98
same,Johnsongrass plant response rating,johnsongrass; [9],98
same,Pigweed plant response rating (0 to 100 scale),pigweed [2],100
same,Pigweed plant response rating,pigweed [2],100
same,Corn plant response rating,corn [3]; [7],10
same,Corn plant response rating,corn [3]; [8],50
same,"Plant response rating, Corn",corn [3]; 13 to 15 days,80
same,Corn plant response rating,corn [3]; [9],90
same,Wheat plant response rating,wheat [4]; [10],80
same,Wheat plant response rating,wheat [4]; [11],50
same,"Crabgrass, Large plant response rating","crabgrass, large; [7]",100
same,"Plant response rating, Crabgrass, Large","crabgrass, large; 13 to 15 days",100
same,"Crabgrass, Large plant response rating","crabgrass, large; [9]",100
same,Waterhemp plant response rating,waterhemp; [7],98
same,Waterhemp plant response rating,waterhemp; [8],100
same,"Plant response rating, Waterhemp",waterhemp; 13 to 15 days,100
same,Waterhemp plant response rating,waterhemp; [9],100
same,Morningglory plant response rating,morningglory; [7],80
same,Morningglory plant response rating,morningglory; [8],100
same,"Plant response rating, Morningglory",morningglory; 13 to 15 days,100
same,Morningglory plant response rating,morningglory; [9],100
same,Wheat plant response rating,wheat [5]; [7],5
same,Wheat plant response rating,wheat [5]; [8],40
same,"Plant response rating, Wheat",wheat [5]; 13 to 15 days,50
same,Wheat plant response rating,wheat [5]; [9],90
same,Barnyardgrass plant response rating,barnyardgrass; [7],95
same,"Plant response rating, Barnyardgrass",barnyardgrass; 13 to 15 days,100
same,Barnyardgrass plant response rating,barnyardgrass; [9],100
same,Corn plant response rating (0 to 100 scale),corn [6],30
same,Corn plant response rating,corn [6],60
CCNC(=O)c1cc(CCCl)n(Cc2ccnc(C(F)(F)F)c2)n1 [Compound 179],Velvetleaf plant response rating,velvetleaf; [7],35
same,Velvetleaf plant response rating,velvetleaf; [8],80
same,"Plant response rating, Velvetleaf",velvetleaf; 13 to 15 days,100
same,Velvetleaf plant response rating,velvetleaf; [9],100
same,"Foxtail, Giant plant response rating (0 to 100 scale)","foxtail, giant",100
same,"Foxtail, Giant plant response rating","foxtail, giant",100
same,Pigweed plant response rating,pigweed [1]; [7],100
same,Pigweed plant response rating,pigweed [1]; [8],100
same,"Plant response rating, Pigweed",pigweed [1]; 13 to 15 days,100
same,Pigweed plant response rating,pigweed [1]; [9],98
same,Johnsongrass plant response rating,johnsongrass; [7],10
same,Johnsongrass plant response rating,johnsongrass; [8],10
same,"Plant response rating, Johnsongrass",johnsongrass; 13 to 15 days,75
same,Johnsongrass plant response rating,johnsongrass; [9],98
same,Pigweed plant response rating (0 to 100 scale),pigweed [2],100
same,Pigweed plant response rating,pigweed [2],100
same,Corn plant response rating,corn [3]; [7],5
same,Corn plant response rating,corn [3]; [8],10
same,"Plant response rating, Corn",corn [3]; 13 to 15 days,30
same,Corn plant response rating,corn [3]; [9],95
same,Wheat plant response rating,wheat [4]; [10],70
same,Wheat plant response rating,wheat [4]; [11],30
same,"Crabgrass, Large plant response rating","crabgrass, large; [7]",100
same,"Crabgrass, Large plant response rating","crabgrass, large; [8]",100
same,"Plant response rating, Crabgrass, Large","crabgrass, large; 13 to 15 days",100
same,"Crabgrass, Large plant response rating","crabgrass, large; [9]",100
same,Waterhemp plant response rating,waterhemp; [7],100
same,Waterhemp plant response rating,waterhemp; [8],100
same,"Plant response rating, Waterhemp",waterhemp; 13 to 15 days,100
same,Waterhemp plant response rating,waterhemp; [9],100
same,Morningglory plant response rating,morningglory; [7],85
same,Morningglory plant response rating,morningglory; [8],95
same,"Plant response rating, Morningglory",morningglory; 13 to 15 days,100
same,Morningglory plant response rating,morningglory; [9],100
same,Wheat plant response rating,wheat [5]; [7],0
same,Wheat plant response rating,wheat [5]; [8],0
same,"Plant response rating, Wheat",wheat [5]; 13 to 15 days,80
same,Wheat plant response rating,wheat [5]; [9],85
same,Barnyardgrass plant response rating,barnyardgrass; [7],60
same,Barnyardgrass plant response rating,barnyardgrass; [8],98
same,"Plant response rating, Barnyardgrass",barnyardgrass; 13 to 15 days,100
same,Barnyardgrass plant response rating,barnyardgrass; [9],100
same,Corn plant response rating (0 to 100 scale),corn [6],10
same,Corn plant response rating,corn [6],50
